Where two headings read alike, the source gives them in different places.
Experiments:
Δ13 LeuBAT = Δ13 LeuBAT (Aquifex aeolicus, UniProt O67854, A261V/E290S/G24D/G408T/I106S/I262L/I359G/N21Y/P362G/S256G/T254S/T409G/Y265F); assay: biochemical
wild-type LeuT [1] = target: T1, wild-type LeuT (Aquifex aeolicus, UniProt O67854)
wild-type LeuT [2] = target: T1, wild-type LeuT; assay: biochemical; details: saturation binding of 3H-mazindol
[3] = target: hSERT (human serotonin transporter); details: cited from earlier work

SMILES | Kd (Δ13 LeuBAT) [nM] | Kd (wild-type LeuT [1]; saturation binding of 3H-labeled drug, n=3, ±s.e.m) | suppression of sertraline binding to wild-type LeuT (wild-type LeuT [1]; 3 µM 3[H]-sertraline with 5 mM Ala) | Kd (wild-type LeuT [2]) [nM] | Kd [3] [nM]
Fc1ccc([C@@H]2CCNC[C@H]2COc2ccc3c(c2)OCO3)cc1 [paroxetine] | 431 ± 24 | could not be fit to an isotherm because of low affinity |  |  | 
C[C@H](N)C(=O)O [alanine] |  |  | could not suppress the binding of sertraline |  | 
OC1(c2ccc(Cl)cc2)c2ccccc2C2=NCCN21 (stereo not drawn) [mazindol] | 112 ± 18 |  |  | 22300 ± 5400 | 103 ± 4.7

Source: publication PMC3904662 (Nature, 2013)
